Source: patent EP0198765A2, “Preparation of liposomes” (GEORGETOWN UNIVERSITY, priority 1985, dated 1986)

How the values were obtained:
[1] = Percentage of entrapment of drugs in liposomes, determined by fluorescence after dialysis; format: physicochemical; conditions: liposomes of cardiolipin, phosphatidyl choline, cholesterol, stearylamine-DTPA
Description: For the preparation of liposomes, 6 mg of doxorubicin or daunorubicin was added to 9 mg of cardiolipin solution and evaporated to dryness under N2. To this dried mixture were then added 22.5 mg of phosphatidyl choline, 7.5 mg cholesterol and 3 mg of stearylamine-DTPA. Again, the mixture was evaporated to dryness under N2.
The dried lipids and doxorubicin or daunorubicin were resuspended in 6 ml of 0.01 M phosphate buffer with 0.85% NaCl, pH 7.4 (PBS). After one-half-hour swelling time, the liposomes were stirred for 15 minutes, followed by sonication (Heat System, Model W-220F) in a fixed temperature bath at 37°C for 90 minutes. The non-entrapped doxorubicin or daunorubicin was separated from liposome-encapsulated drug by extensive dialysis against 0.001 M phosphate buffer with 0.85% NaCl, pH 7.4 at 4°C over a period of 20 hours with at least two changes of buffer solutions (250 ml/ml liposomes). […] The difference in encapsulation of these two drugs relates to their lipophilicity; daunorubicin is more lipophilic than doxorubicin. The liposomes were freshly prepared each day and were diluted with 0.01 M phosphate buffer (PBS) so as to administer doses of doxorubicin or daunorubicin equivalent to doses of free drugs for pharmacological, toxicological and therapeutic studies.

P388 leukemia = assay: Antitumor studies against P388 leukemia in mice (median survival time, T/c); format: in vivo, CDF1 mice; conditions: 24 hours after i.p. implant of 1x10^6 P388 cells, Treated/Control x 100
Description: To investigate the therapeutic effectiveness of doxorubicin and daunorubicin entrapped in liposomes, antitumor studies were performed against P388 leukemia in CDF1 mice. Groups of ten mice were implanted intraperitoneally with lxl0^6 cells of P388 tumor, and drug treatment was initiated on day one intraperitoneally or intravenously after tumor cell inoculation. Antitumor efficacy was expressed in leukemic animals by the increase in median survival time, in the dose-range used, compared to controls. Dead animals were autopsied and toxicity was established on the basis of macroscopic necropsy findings.

[2] = Lethal toxicity in normal mice; format: in vivo; conditions: 20 mg/kg intraperitoneally, normal CDF1 mice, by day 10
Description: For comparison of lethal toxicity of free doxorubicin and doxorubicin entrapped in liposomes, normal CDF1 mice were administered a dose of 20 mg/kg intraperitonally. The mice were observed until day 80 post-drug administration. The control mice received blank liposomes representing the same concentration of the lipid used to entrap a dose of 20 mg/kg of doxorubicin. Mice in each group were weighed twice weekly and were observed daily.

[3] = Plasma levels in mice after i.v. administration of free or liposome-entrapped drug; conditions: 6 mg/kg i.v.
Description: (§1) Male CDF1 mice weighing 20-25 g were used to evaluate the influence of liposome encapsulation on plasma levels and physiological disposition of daunorubicin and doxorubicin. Free or encapsulated daunorubicin or doxorubicin was administered intravenously via a lateral tail vein at a dose of 6 mg/kg at 2% body weight (0.02 ml/gm). At 5, 15, 30, 60, 120, 240, and 480 minutes and at 24 hours, mice in each group were bled from the orbital sinus. Blood was collected in heparinized tubes and centrifuged at 1500 rpm for 10 minutes. The plasma layer was separated and frozen. Mice were then killed by cervical dislocation, and the liver, kidney, heart, spleen, small intestine and lungs were excised, rinsed in normal saline, and stored at -20°C until assayed.
(§2) Plasma and tissues were analyzed for drug equivalents by the method of Formelli et al. (Cancer Chemotherapy and Pharmacology, 5, 129-144 (1981)) as modified in the inventor's laboratories. Plasma (0.25 ml) was diluted to 1 ml with distilled water, followed by addition of 0.2 ml of AgN03 (33% wt/vol). Tissues were homogenized in 1 ml of water in a polytron homogenizer. […] The butanol extract was read in a spectrofluorometer at 470 nm excitation and 585 nm emission. Control plasma and tissues obtained from mice treated with blank liposomes were treated the same way and read in the fluorometer to correct for any endogenous fluorescence. […]

[4] = Tissue disposition (heart, liver, spleen, lungs, kidney, intestine) in mice after i.v. administration; conditions: doxorubicin 6 mg/kg i.v., CDF1 mice; at 15 minutes
Description: as §1, §2

Compound | efficiency of entrapment in liposomes [1] | T/c (%) (P388 leukemia; 2 mg/kg i.p.) | T/c (%) (P388 leukemia; 4 mg/kg i.p.) | T/c (%) (P388 leukemia; 6 mg/kg i.p.) | T/c (%) (P388 leukemia; 6 mg/kg i.p., listed as daunorubicin) | T/c (%) (P388 leukemia; 15 mg/kg l.v) | T/c (%) (P388 leukemia; 20 mg/kg i.v.) | T/c (%) (P388 leukemia; 15 mg/kg i.p.) | T/c (%) (P388 leukemia; 20 mg/kg i.p.) | mortality [2] [%] | peak plasma concentration (doxorubicin) [3] [µg/mL] | peak drug concentration in the kidney [4] [µg/gm]
COc1cccc2c1C(=O)c1c(O)c3c(c(O)c1C2=O)C[C@@](O)(C(C)=O)C[C@@H]3O[C@H]1C[C@H](N)[C@H](O)[C@H](C)O1 [Free Daunorubicin, daunorubicin] | 75-85% | 145.5 | 136.4 | 109.1 | 109 | 145.5 | 154.5 |  |  |  |  | 
COc1cccc2c1C(=O)c1c(O)c3c(c(O)c1C2=O)C[C@@](O)(C(=O)CO)C[C@@H]3O[C@H]1C[C@H](N)[C@H](O)[C@H](C)O1 [Free Doxorubicin, doxorubicin] | 65-75% |  |  |  |  |  |  | 130 | 100 | 100 | 2.4 | 41.0
